# Assay results as given in PubChem BioAssay (NCI).
#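 Tested at 5 concentrations; 48 h exposure; 96-well plates; endpoints linearly interpolated, else capped at highest concentration. Abbreviation: GI50, concentration required for 50% inhibition of growth. Definition used: TGI = concentration required for complete inhibition of growth.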
# Key:
# Experiment in all cases: DTP human tumour cell line panel, 48 h
# 786-0 renal = system: 786-0 renal
# A498 renal = system: A498 renal
# A549 NSCLC = system: A549 NSCLC
# ACHN renal = system: ACHN renal
# BT-549 breast = system: BT-549 breast
# CAKI-1 renal = system: CAKI-1 renal
# CCRF-CEM leukemia = system: CCRF-CEM leukemia
# COLO 205 colon = system: COLO 205 colon
# DU-145 prostate = system: DU-145 prostate
# EKVX NSCLC = system: EKVX NSCLC
# HCC-2998 colon = system: HCC-2998 colon
# HCT-116 colon = system: HCT-116 colon
# HCT-15 colon = system: HCT-15 colon
# HL-60(TB) leukemia = system: HL-60(TB) leukemia
# HOP-62 NSCLC = system: HOP-62 NSCLC
# HOP-92 NSCLC = system: HOP-92 NSCLC
# HS 578T breast = system: HS 578T breast
# HT29 colon = system: HT29 colon
# IGROV1 ovarian = system: IGROV1 ovarian
# K-562 leukemia = system: K-562 leukemia
# KM12 colon = system: KM12 colon
# LOX IMVI melanoma = system: LOX IMVI melanoma
# M14 melanoma = system: M14 melanoma
# MALME-3M melanoma = system: MALME-3M melanoma
# MCF7 breast = system: MCF7 breast
# MDA-MB-231 breast = system: MDA-MB-231 breast
# MDA-MB-435 = system: MDA-MB-435
# MDA-MB-468 breast = system: MDA-MB-468 breast
# MOLT-4 leukemia = system: MOLT-4 leukemia
structure (smiles),measurement,setting,value
O=c1oc2ccc(-c3ccc(F)cc3F)cc2c(=O)n1-c1ccc(F)cc1,GI50,786-0 renal,5.51 µM
same,TGI,786-0 renal,53.7 µM
same,GI50,A498 renal,1.91 µM
same,TGI,A498 renal,6.17 µM
same,GI50,A549 NSCLC,3.25 µM
same,TGI,A549 NSCLC,> 100 µM
same,GI50,ACHN renal,3.88 µM
same,TGI,ACHN renal,> 100 µM
same,GI50,BT-549 breast,1.92 µM
same,TGI,BT-549 breast,5.89 µM
same,GI50,CAKI-1 renal,1.48 µM
same,TGI,CAKI-1 renal,5.1 µM
same,GI50,CCRF-CEM leukemia,3.18 µM
same,TGI,CCRF-CEM leukemia,9.84 µM
same,GI50,COLO 205 colon,16.3 µM
same,TGI,COLO 205 colon,34.8 µM
same,GI50,DU-145 prostate,3.3 µM
same,TGI,DU-145 prostate,> 100 µM
same,GI50,EKVX NSCLC,2.8 µM
same,TGI,EKVX NSCLC,> 100 µM
same,GI50,HCC-2998 colon,3.31 µM
same,TGI,HCC-2998 colon,13.9 µM
same,GI50,HCT-116 colon,3.12 µM
same,TGI,HCT-116 colon,18.8 µM
same,GI50,HCT-15 colon,2.91 µM
same,TGI,HCT-15 colon,> 100 µM
same,GI50,HL-60(TB) leukemia,2.01 µM
same,TGI,HL-60(TB) leukemia,6.13 µM
same,GI50,HOP-62 NSCLC,2.39 µM
same,TGI,HOP-62 NSCLC,6.93 µM
same,GI50,HOP-92 NSCLC,0.95 µM
same,TGI,HOP-92 NSCLC,4.48 µM
same,GI50,HS 578T breast,2.27 µM
same,TGI,HS 578T breast,7.51 µM
same,GI50,HT29 colon,10.3 µM
same,TGI,HT29 colon,75.8 µM
same,GI50,IGROV1 ovarian,3.02 µM
same,TGI,IGROV1 ovarian,> 100 µM
same,GI50,K-562 leukemia,1.58 µM
same,TGI,K-562 leukemia,> 100 µM
same,GI50,KM12 colon,3.07 µM
same,TGI,KM12 colon,10.7 µM
same,GI50,LOX IMVI melanoma,3.21 µM
same,TGI,LOX IMVI melanoma,11.2 µM
same,GI50,M14 melanoma,3.49 µM
same,TGI,M14 melanoma,> 100 µM
same,GI50,MALME-3M melanoma,1.62 µM
same,TGI,MALME-3M melanoma,5.34 µM
same,GI50,MCF7 breast,2.51 µM
same,TGI,MCF7 breast,> 100 µM
same,GI50,MDA-MB-231 breast,1.76 µM
same,TGI,MDA-MB-231 breast,4.41 µM
same,GI50,MDA-MB-435,1.73 µM
same,TGI,MDA-MB-435,7.09 µM
same,GI50,MDA-MB-468 breast,1.87 µM
same,TGI,MDA-MB-468 breast,5.67 µM
same,GI50,MOLT-4 leukemia,2.08 µM
